# Measured values reported in ChEMBL document CHEMBL3885881, “DrugMatrix”.
# Species on record: Rattus norvegicus
# Assay: DrugMatrix - Regimen: Daily Repeat
# Format: toxicity, organism-based, Sprague-Dawley
# Parameters: regimen Daily Repeat, gender Male, age 6-8 weeks
# Conditions: in vivo, po, 90 mg/kg, route oral GAVAGE, dose level Low, vehicle 100 % WATER; for ALANINE AMINOTRANSFERASE / ALBUMIN / ALKALINE PHOSPHATASE / ASPARTATE AMINOTRANSFERASE / BLOOD UREA NITROGEN / CARBON DIOXIDE / CHLORIDE / CHOLESTEROL / CREATINE PHOSPHOKINASE / CREATININE / LACTATE DEHYDROGENASE / LIPASE / PHOSPHORUS / POTASSIUM / SODIUM / TOTAL BILIRUBIN / TOTAL PROTEIN / URIC ACID: tissue Plasma
# [1] = 120 h, tissue Blood, time 5 day
smiles,measurement,setting,value
CC(NC(C)(C)C)C(=O)c1cccc(Cl)c1 (stereo not drawn) [BUPROPION],ABSOLUTE BASOPHIL,"72 h, tissue Blood, time 3 day",0 CELLS/uL
same,ABSOLUTE EOSINOPHIL,"72 h, tissue Blood, time 3 day",0 CELLS/uL
same,ABSOLUTE LYMPHOCYTE,"72 h, tissue Blood, time 3 day",10359.67 CELLS/uL
same,ABSOLUTE MONOCYTE,"72 h, tissue Blood, time 3 day",103.67 CELLS/uL
same,ABSOLUTE SEGMENTED NEUTROPHIL,"72 h, tissue Blood, time 3 day",603.33 CELLS/uL
same,BASOPHIL,"72 h, tissue Blood, time 3 day",0%
same,EOSINOPHIL,"72 h, tissue Blood, time 3 day",0%
same,ERYTHROCYTE COUNT,"72 h, tissue Blood, time 3 day",5.5 x10E6/uL
same,HEMATOCRIT,"72 h, tissue Blood, time 3 day",35.63%
same,HEMOGLOBIN,"72 h, tissue Blood, time 3 day",13.4 G/DL
same,LEUKOCYTE COUNT,"72 h, tissue Blood, time 3 day",11.07 x10E3/uL
same,LYMPHOCYTE,"72 h, tissue Blood, time 3 day",93.67%
same,MEAN CORPUSCULAR HEMOGLOBIN,"72 h, tissue Blood, time 3 day",24.4 pg
same,MEAN CORPUSCULAR HEMOGLOBIN CONCENTRATION,"72 h, tissue Blood, time 3 day",37.63 G/DL
same,MEAN CORPUSCULAR VOLUME,"72 h, tissue Blood, time 3 day",64.83 fL
same,MONOCYTE,"72 h, tissue Blood, time 3 day",1%
same,NEUTROPHIL,"72 h, tissue Blood, time 3 day",5.33%
same,NUCLEATED RED BLOOD CELLS,"72 h, tissue Blood, time 3 day",0 /100WBC
same,PLATELET COUNT,"72 h, tissue Blood, time 3 day",1176 x10E3/uL
same,ALANINE AMINOTRANSFERASE,"72 h, time 3 day",40 u/L
same,ALBUMIN,"72 h, time 3 day",4.5 G/DL
same,ALKALINE PHOSPHATASE,"72 h, time 3 day",417.67 u/L
same,ASPARTATE AMINOTRANSFERASE,"72 h, time 3 day",84.67 u/L
same,BLOOD UREA NITROGEN,"72 h, time 3 day",16.33 mg/dL
same,CARBON DIOXIDE,"72 h, time 3 day",31 mmol/L
same,CHLORIDE,"72 h, time 3 day",99.33 MEQ/L
same,CHOLESTEROL,"72 h, time 3 day",95 mg/dL
same,CREATINE PHOSPHOKINASE,"72 h, time 3 day",325 u/L
same,CREATININE,"72 h, time 3 day",0.19 mg/dL
same,LACTATE DEHYDROGENASE,"72 h, time 3 day",154.67 u/L
same,LIPASE,"72 h, time 3 day",9 u/L
same,PHOSPHORUS,"72 h, time 3 day",10.93 mg/dL
same,POTASSIUM,"72 h, time 3 day",6.49 MEQ/L
same,SODIUM,"72 h, time 3 day",143.13 MEQ/L
same,TOTAL BILIRUBIN,"72 h, time 3 day",0.17 mg/dL
same,TOTAL PROTEIN,"72 h, time 3 day",6.53 G/DL
same,URIC ACID,"72 h, time 3 day",0.73 mg/dL
same,ABSOLUTE BASOPHIL,[1],0 CELLS/uL
same,ABSOLUTE EOSINOPHIL,[1],55.33 CELLS/uL
same,ABSOLUTE LYMPHOCYTE,[1],14977 CELLS/uL
same,ABSOLUTE MONOCYTE,[1],411.67 CELLS/uL
same,ABSOLUTE SEGMENTED NEUTROPHIL,[1],2222.67 CELLS/uL
same,BASOPHIL,[1],0%
same,EOSINOPHIL,[1],0.33%
same,ERYTHROCYTE COUNT,[1],5.73 x10E6/uL
same,HEMATOCRIT,[1],37.5%
same,LEUKOCYTE COUNT,[1],17.67 x10E3/uL
same,LYMPHOCYTE,[1],86.67%
same,MEAN CORPUSCULAR HEMOGLOBIN,[1],24.83 pg
same,MEAN CORPUSCULAR HEMOGLOBIN CONCENTRATION,[1],37.83 G/DL
same,MEAN CORPUSCULAR VOLUME,[1],65.57 fL
same,MONOCYTE,[1],2%
same,NEUTROPHIL,[1],11%
same,NUCLEATED RED BLOOD CELLS,[1],0 /100WBC
same,PLATELET COUNT,[1],1410.67 x10E3/uL
same,ALANINE AMINOTRANSFERASE,"120 h, time 5 day",37.67 u/L
same,ALBUMIN,"120 h, time 5 day",4.67 G/DL
same,ALKALINE PHOSPHATASE,"120 h, time 5 day",328 u/L
same,ASPARTATE AMINOTRANSFERASE,"120 h, time 5 day",72 u/L
same,BLOOD UREA NITROGEN,"120 h, time 5 day",17.33 mg/dL
same,CARBON DIOXIDE,"120 h, time 5 day",32.33 mmol/L
same,CHLORIDE,"120 h, time 5 day",100 MEQ/L
same,CHOLESTEROL,"120 h, time 5 day",93.67 mg/dL
same,CREATINE PHOSPHOKINASE,"120 h, time 5 day",263 u/L
same,CREATININE,"120 h, time 5 day",0.21 mg/dL
same,LACTATE DEHYDROGENASE,"120 h, time 5 day",145 u/L
same,LIPASE,"120 h, time 5 day",9.33 u/L
same,PHOSPHORUS,"120 h, time 5 day",12.6 mg/dL
same,POTASSIUM,"120 h, time 5 day",8.49 MEQ/L
same,SODIUM,"120 h, time 5 day",144.5 MEQ/L
same,TOTAL BILIRUBIN,"120 h, time 5 day",0.23 mg/dL
same,TOTAL PROTEIN,"120 h, time 5 day",6.77 G/DL
same,URIC ACID,"120 h, time 5 day",1.6 mg/dL
